Data reported in US11649242B2, “Pyrrolopyrrole compositions as pyruvate kinase (PKR) activators” (FORMA Therapeutics, Inc., priority 2017, dated 2023).

Columns and labels:
Assay type in all cases: biochemical
PKR(wt) = PKR(wt) (Homo sapiens, UniProt P30613); test: Luminescence Assay Protocol (Kinase Glo Plus), PKR(Wt/without FBP); conditions: without FBP; for activation at 1.54 µM: read-out: I - AC50 LUM KGP woFBP % Fold @ 1.54 μM mean; for AC50: gmean, read-out: G - AC50 LUM KGP woFBP AC50 μM gmean; for Emax: read-out: H - AC50 LUM KGP woFBP MAX % FOLD mean
Experimental: (§1) Example 47: PKR(Wt/without FBP), PKR(G332S/with FBP), PKR(R510Q/without FBP)
(§2) The phosphorylation of Adenosine-5′-diphosphate (ADP) by various mutants of PKR was determined by the Kinase Glo Plus Assay (Promega) in the presence or absence of FBP [D-Fructose-1,6-diphosphate; BOC Sciences, CAS: 81028-91-3] as follows. Unless otherwise indicated, all reagents were purchased from Sigma-Aldrich. All reagents were prepared in buffer containing 50 mM Tris-HCl, 100 mM KCl, 5 mM MgCl2, and 0.01% Triton X100, 0.03% BSA, and 1 mM DTT. Enzyme and PEP [Phospho(enol) pyruvic acid] were added at 2× to all wells of an assay-ready plate containing serial dilutions of test compounds or DMSO vehicle. Final enzyme concentrations for PKR(wt), PKR(R510Q), and PKR(G332S) were 0.8 nM, 0.8 nM, and 10 nM respectively. Final PEP concentration was 100 μM. The Enzyme/PEP mixture was incubated with compounds for 30 minutes at RT before the assay was initiated with the addition of 2×ADP [Adenosine-5′-diphosphate] and KinaseGloPlus. Final concentration of ADP was 100 μM. […] For assays containing FBP, that reagent is added at 30 μM upon reaction initiation. Reactions were allowed to progress for 45 minutes at RT until luminescence was recorded by the BMG PHERAstar FS Multilabel Reader. All compounds were tested in triplicate at concentrations ranging from 42.5 μM to 2.2 nM in 0.83% DMSO.
(§3) Luminescence values were converted to % Fold increase by normalizing to the average of the DMSO control and multiplying by 100. Max, min, slope and AC50 were determined by the standard four parameter fit algorithm of ActivityBase XE Runner. Compounds were evaluated with three parameters—AC50, MAX % Fold, and % Fold@1.54 μM (FIG. 1). The AC50 value for a compound is the concentration […] corresponding to the midway between the maximum and minimum values of the four parameter logistic curve fit (i.e., at which the % fold increase along the four parameter logistic curve fit is halfway between MAX % Fold and MIN % Fold (% Fold Midpoint)), MAX % Fold is the highest fold increase observed at any concentration of compound, and % Fold@1.54 μM is the fold increase at a compound concentration of 1.54 μM. The parameter % Fold@1.54 μM was selected to capture elements of both the AC50 and MAX % Fold and to provide a ranking based on both potency and effect. The compound concentration of 1.54 μM was chosen as one that can optimally differentiate the set of compounds based on the range of activities observed.
(§4) As set forth in Tables 6 and 7 below, AC50 values (columns A, D, G) are defined as follows: ≤0.1 μM (+++); >0.1 μM and ≤1.0 μM (++); >1.0 μM and ≤40 μM (+); >40 μM (0). Max % FOLD values (columns B, E, H) are defined as follows: ≤75% (+); >75% and ≤250% (++); >250% and ≤500% (+++). % Fold@1.54 μM values (columns C, F, I) are defined as follows: ≤75% (+); >75% and ≤250% (++); >250% and ≤500% (+++).

PKR(G332S) = PKR(G332S) (Homo sapiens, UniProt P30613, G332S); test: Luminescence Assay Protocol (Kinase Glo Plus), PKR(G332S/with FBP); conditions: PKRG332S, with FBP; for activation at 1.54 µM: compound 1.54 μM, read-out: C - AC50 LUM KGP FBP % Fold @ 1.54 μM mean; for AC50: gmean, read-out: A - AC50 LUM KGP FBP AC50 μM gmean; for Emax: highest % fold increase at any concentration, read-out: B - AC50 LUM KGP FBP MAX % FOLD mean
Experimental: as §1, §2, §3, §4

PKR(R510Q) = PKR(R510Q) (Homo sapiens, UniProt P30613, R510Q); test: Luminescence Assay Protocol (Kinase Glo Plus), PKR(R510Q/without FBP); conditions: PKRR510Q, without FBP; for activation at 1.54 µM: compound 1.54 μM, read-out: F - AC50 LUM KGP woFBP % Fold @ 1.54 μM mean; for AC50: gmean, read-out: D - AC50 LUM KGP woFBP AC50 μM gmean; for Emax: highest % fold increase at any concentration, read-out: E - AC50 LUM KGP woFBP MAX % FOLD mean
Experimental: as §1, §2, §3, §4

[1] = highest % fold increase at any concentration

Sequence of PKR(wt) (P30613 whole entry): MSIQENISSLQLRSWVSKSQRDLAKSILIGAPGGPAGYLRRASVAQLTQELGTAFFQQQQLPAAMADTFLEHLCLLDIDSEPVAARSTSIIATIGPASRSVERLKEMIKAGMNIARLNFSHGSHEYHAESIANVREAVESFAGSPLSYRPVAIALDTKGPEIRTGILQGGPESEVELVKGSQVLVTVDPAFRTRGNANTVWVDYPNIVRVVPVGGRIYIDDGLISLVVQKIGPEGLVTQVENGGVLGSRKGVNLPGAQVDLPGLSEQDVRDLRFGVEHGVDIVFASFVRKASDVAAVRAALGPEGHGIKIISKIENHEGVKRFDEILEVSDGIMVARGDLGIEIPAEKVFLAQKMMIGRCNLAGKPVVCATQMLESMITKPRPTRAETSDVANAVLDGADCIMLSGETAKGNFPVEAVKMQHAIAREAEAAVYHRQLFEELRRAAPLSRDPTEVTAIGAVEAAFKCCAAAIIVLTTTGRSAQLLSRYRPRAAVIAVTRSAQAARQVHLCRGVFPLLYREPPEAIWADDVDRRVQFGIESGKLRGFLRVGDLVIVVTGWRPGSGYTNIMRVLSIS
Sequence of PKR(R510Q) (P30613 whole entry R510Q): as the sequence (P30613 whole entry) above, with R510Q counted along it
Sequence of PKR(G332S) (P30613 whole entry G332S): as the sequence (P30613 whole entry) above, with G332S counted along it

SMILES	activation at 1.54 µM (PKR(wt); compound 1.54 μM)	AC50 (PKR(wt))	Emax (PKR(wt); [1])	activation at 1.54 µM (PKR(G332S))	AC50 (PKR(G332S))	Emax (PKR(G332S))	activation at 1.54 µM (PKR(R510Q))	AC50 (PKR(R510Q))	Emax (PKR(R510Q))	I - AC50 LUM KGP woFBP % Fold @ 1.54 μM mean (PKR(wt); compound 1.54 μM)	H - AC50 LUM KGP woFBP MAX % FOLD mean (PKR(wt); [1])
CC(C)(O)[C@@H](C(=O)N1CC2=C(C1)CN(S(=O)(=O)c1ccc(OC(F)F)cc1)C2)c1ccccc1 [Example 28, (S)-1-(5-((4-(difluoromethoxy)phenyl)sulfonyl)-3,4,5,6-tetrahydropyrrolo[3,4-c]pyrrol-2(1H)-yl)-3-hydroxy-3-methyl-2-phenylbutan-1-one]	75 to 250%	0.1 to 1 µM	250 to 500%	75 to 250%	≤ 0.1 µM	75 to 250%	75 to 250%	1 to 40 µM	250 to 500%	–	–
O=C(C1CCOC1)N1CC2=C(C1)CN(S(=O)(=O)c1ccc3c(c1)NCCO3)C2 (centres unmarked) [Example 39, (5-((3,4-dihydro-2H-benzo[b][1,4]oxazin-6-yl)sulfonyl)-3,4,5,6-tetrahydropyrrolo[3,4-c]pyrrol-2(1H)-yl)(tetrahydrofuran-3-yl)methanone]	250 to 500%	0.1 to 1 µM	250 to 500%	75 to 250%	≤ 0.1 µM	75 to 250%	250 to 500%	0.1 to 1 µM	250 to 500%	–	–
O=C([C@H](CO)c1ccccc1)N1CC2=C(C1)CN(S(=O)(=O)c1ccc3ncsc3c1)C2 [Example 29, (S)-1-(5-(benzo[d]thiazol-6-ylsulfonyl)-3,4,5,6-tetrahydropyrrolo[3,4-c]pyrrol-2(1H)-yl)-3-hydroxy-2-phenylpropan-1-one]	250 to 500%	≤ 0.1 µM	250 to 500%	75 to 250%	≤ 0.1 µM	75 to 250%	250 to 500%	≤ 0.1 µM	250 to 500%	–	–
O=C(C1CCCOC1)N1CC2=C(C1)CN(S(=O)(=O)c1cnc3c(c1)OCCO3)C2 (single isomer, unassigned) [Example 6, (S or R)-(5-((2,3-dihydro-[1,4]dioxino[2,3-b]pyridin-7-yl)sulfonyl)-3,4,5,6-tetrahydropyrrolo[3,4-c]pyrrol-2(1H)-yl)(tetrahydro-2H-pyran-3-yl)methanone]	–	1 to 40 µM	–	–	> 40 µM	–	–	> 40 µM	–	++ (>75% and ≤250% (++))	++ (>75% and ≤250% (++))
O=C([C@@H](CO)c1ccccc1)N1CC2=C(C1)CN(S(=O)(=O)c1ccc3ncsc3c1)C2 [Example 30, (R)-1-(5-(benzo[d]thiazol-6-ylsulfonyl)-3,4,5,6-tetrahydropyrrolo[3,4-c]pyrrol-2(1H)-yl)-3-hydroxy-2-phenylpropan-1-one]	250 to 500%	0.1 to 1 µM	250 to 500%	75 to 250%	0.1 to 1 µM	75 to 250%	250 to 500%	0.1 to 1 µM	250 to 500%	–	–
CC1(C)CNc2cc(S(=O)(=O)N3CC4=C(CN(C(=O)[C@H](CO)c5ccccc5)C4)C3)ccc2O1 [Example 32, (S)-1-(5-((2,2-dimethyl-3,4-dihydro-2H-benzo[b][1,4]oxazin-6-yl)sulfonyl)-3,4,5,6-tetrahydropyrrolo[3,4-c]pyrrol-2(1H)-yl)-3-hydroxy-2-phenylpropan-1-one]	75 to 250%	≤ 0.1 µM	75 to 250%	75 to 250%	> 40 µM	75 to 250%	75 to 250%	≤ 0.1 µM	75 to 250%	–	–
O=C([C@H](CO)c1ccccc1)N1CC2=C(C1)CN(S(=O)(=O)c1cnc3c(c1)OCCO3)C2 (single isomer, unassigned) [Example 1]	75 to 250%	–	75 to 250%	75 to 250%	–	75 to 250%	250 to 500%	–	250 to 500%	–	–
